Counter-ions that a name gives are not always drawn.
What was measured:
[1] = target: T1, PDGFR beta (Homo sapiens, UniProt P09619); assay: Phospho PDGFR Cell Assay, sandwich ELISA (Example A); format: cell-based; conditions: averaged IC50, PDGFR beta phosphorylation in HS27 human fibroblast cell line, PDGF-BB stimulation 5 minutes
T1 construct: endogenous in cells; host or cells: HS27 human fibroblast cell line
Protocol: Compounds were screened for inhibition of PDGFR beta phosphorylation in the HS27 human fibroblast cell line. Cells were seeded into a 96 well tissue culture plate, then incubated overnight in a 37° C., 5% CO2 incubator. The following day, cells were treated for one hour with test compound dilutions. After stimulation with PDGF-BB ligand for 5 minutes, cells were lysed and added to a sandwich ELISA plate from R&D Systems to detect levels of phospho PDGFR beta. A standard 4-parameter logistic model was fit to the inhibitor dose response curves, with the IC50 being defined as the concentration of inhibitor giving 50 percent of control (POC).

[2] = target: T2, cFMS (Homo sapiens, UniProt P07333); assay: cFMS Cell-Based Assay (Example C); conditions: averaged IC50; phospho-cFMS in THP-1 cells stimulated with 250 ng/mL recombinant human MCSF; read-out: cFMS Cell ELISA IC50
T2 construct: THP-1 cells (human acute monocytic leukemia cell line) were serum-starved for 4 hours; endogenous in cells; host or cells: THP-1 cells (human acute monocytic leukemia cell line)
Summary of the method: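 Phosphotyrosine on cFMS, captured from lysates and quantified by ELISA, reads receptor activation after 1 min of 250 ng/mL human MCSF. Beforehand, THP-1 cells were serum-starved for 4 h and exposed to compound for 1 h (9 points, 3-fold, typically up to 5,000 nM). IC50 from a 4-parameter logistic fit as 50 percent of control.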

[3] = target: T3, c-KIT (Homo sapiens, UniProt P10721); assay: c-KIT Cell-Based Assay (Example D); conditions: averaged IC50; phospho-c-KIT in M-07e cells stimulated with 150 ng/ml recombinant human SCF; read-out: cKIT Cell ELISA IC50
T3 construct: M-07e cells (human acute megakaryoblastic leukemia cell line) were serum-starved for 4 hours; endogenous in cells; host or cells: M-07e cells (human acute megakaryoblastic leukemia cell line)
Summary of the method: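 Phospho-c-KIT ELISA readout, calibrated with purified phospho-SCF R, gave IC50 (4-parameter fit, 50% of control). Before lysis, M-07e cells were starved 4 h, exposed 1 h to a 9-point 3-fold series (highest usually 5,000 nM), and stimulated with 150 ng/ml SCF for 4 min.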

T3 sequence (P10721 26-976): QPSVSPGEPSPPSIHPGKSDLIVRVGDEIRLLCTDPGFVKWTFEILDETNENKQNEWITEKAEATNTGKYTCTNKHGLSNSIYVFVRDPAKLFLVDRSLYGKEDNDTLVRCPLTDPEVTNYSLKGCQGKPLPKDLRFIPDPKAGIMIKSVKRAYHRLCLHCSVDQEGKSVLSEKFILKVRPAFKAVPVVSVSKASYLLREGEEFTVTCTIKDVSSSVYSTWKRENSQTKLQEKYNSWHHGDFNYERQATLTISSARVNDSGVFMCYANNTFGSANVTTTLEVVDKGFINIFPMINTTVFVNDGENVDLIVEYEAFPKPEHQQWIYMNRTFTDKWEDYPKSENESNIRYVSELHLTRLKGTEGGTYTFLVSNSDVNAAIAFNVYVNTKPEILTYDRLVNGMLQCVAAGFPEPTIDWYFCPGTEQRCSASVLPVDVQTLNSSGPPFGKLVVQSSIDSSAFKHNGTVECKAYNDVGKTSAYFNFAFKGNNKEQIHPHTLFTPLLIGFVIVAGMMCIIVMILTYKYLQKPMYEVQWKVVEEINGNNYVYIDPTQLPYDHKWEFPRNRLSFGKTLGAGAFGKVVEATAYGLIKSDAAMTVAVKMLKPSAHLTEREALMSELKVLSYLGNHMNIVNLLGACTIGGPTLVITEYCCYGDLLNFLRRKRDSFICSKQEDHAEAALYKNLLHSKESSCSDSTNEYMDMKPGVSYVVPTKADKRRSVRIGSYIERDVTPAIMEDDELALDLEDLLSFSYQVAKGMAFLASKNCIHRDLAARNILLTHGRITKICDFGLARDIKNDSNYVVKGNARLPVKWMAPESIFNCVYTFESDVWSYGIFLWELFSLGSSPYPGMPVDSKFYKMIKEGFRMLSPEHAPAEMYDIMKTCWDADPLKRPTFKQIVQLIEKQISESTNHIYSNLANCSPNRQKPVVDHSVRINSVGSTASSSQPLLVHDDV
T1 sequence (P09619 33-1106): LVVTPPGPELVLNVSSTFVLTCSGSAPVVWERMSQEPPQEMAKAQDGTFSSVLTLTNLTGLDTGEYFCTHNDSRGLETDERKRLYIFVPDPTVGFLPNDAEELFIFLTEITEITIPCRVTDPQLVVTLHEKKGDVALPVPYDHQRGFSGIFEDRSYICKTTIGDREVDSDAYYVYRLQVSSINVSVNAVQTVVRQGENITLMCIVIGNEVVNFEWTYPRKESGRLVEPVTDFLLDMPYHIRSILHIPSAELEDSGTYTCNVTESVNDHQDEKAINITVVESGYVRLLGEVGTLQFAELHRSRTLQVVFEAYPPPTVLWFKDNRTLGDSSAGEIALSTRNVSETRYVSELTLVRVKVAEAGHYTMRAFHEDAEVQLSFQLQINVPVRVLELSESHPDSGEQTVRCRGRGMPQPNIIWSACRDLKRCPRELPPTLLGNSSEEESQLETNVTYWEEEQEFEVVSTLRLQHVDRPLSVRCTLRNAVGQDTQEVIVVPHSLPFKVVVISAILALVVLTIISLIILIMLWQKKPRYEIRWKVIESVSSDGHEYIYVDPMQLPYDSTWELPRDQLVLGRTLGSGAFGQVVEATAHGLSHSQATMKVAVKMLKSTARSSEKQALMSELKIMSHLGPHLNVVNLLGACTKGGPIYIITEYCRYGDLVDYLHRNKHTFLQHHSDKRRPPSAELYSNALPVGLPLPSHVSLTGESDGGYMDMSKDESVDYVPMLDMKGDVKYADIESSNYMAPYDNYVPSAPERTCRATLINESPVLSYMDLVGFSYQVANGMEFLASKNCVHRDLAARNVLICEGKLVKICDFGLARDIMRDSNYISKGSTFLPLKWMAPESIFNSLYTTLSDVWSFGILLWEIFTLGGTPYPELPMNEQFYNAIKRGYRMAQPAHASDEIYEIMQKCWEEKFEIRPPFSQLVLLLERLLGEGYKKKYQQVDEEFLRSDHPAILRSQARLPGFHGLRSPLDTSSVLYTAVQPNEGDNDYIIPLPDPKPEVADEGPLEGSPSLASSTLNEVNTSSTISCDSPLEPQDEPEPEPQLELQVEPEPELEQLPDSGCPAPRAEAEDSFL
T2 sequence (P07333 20-972): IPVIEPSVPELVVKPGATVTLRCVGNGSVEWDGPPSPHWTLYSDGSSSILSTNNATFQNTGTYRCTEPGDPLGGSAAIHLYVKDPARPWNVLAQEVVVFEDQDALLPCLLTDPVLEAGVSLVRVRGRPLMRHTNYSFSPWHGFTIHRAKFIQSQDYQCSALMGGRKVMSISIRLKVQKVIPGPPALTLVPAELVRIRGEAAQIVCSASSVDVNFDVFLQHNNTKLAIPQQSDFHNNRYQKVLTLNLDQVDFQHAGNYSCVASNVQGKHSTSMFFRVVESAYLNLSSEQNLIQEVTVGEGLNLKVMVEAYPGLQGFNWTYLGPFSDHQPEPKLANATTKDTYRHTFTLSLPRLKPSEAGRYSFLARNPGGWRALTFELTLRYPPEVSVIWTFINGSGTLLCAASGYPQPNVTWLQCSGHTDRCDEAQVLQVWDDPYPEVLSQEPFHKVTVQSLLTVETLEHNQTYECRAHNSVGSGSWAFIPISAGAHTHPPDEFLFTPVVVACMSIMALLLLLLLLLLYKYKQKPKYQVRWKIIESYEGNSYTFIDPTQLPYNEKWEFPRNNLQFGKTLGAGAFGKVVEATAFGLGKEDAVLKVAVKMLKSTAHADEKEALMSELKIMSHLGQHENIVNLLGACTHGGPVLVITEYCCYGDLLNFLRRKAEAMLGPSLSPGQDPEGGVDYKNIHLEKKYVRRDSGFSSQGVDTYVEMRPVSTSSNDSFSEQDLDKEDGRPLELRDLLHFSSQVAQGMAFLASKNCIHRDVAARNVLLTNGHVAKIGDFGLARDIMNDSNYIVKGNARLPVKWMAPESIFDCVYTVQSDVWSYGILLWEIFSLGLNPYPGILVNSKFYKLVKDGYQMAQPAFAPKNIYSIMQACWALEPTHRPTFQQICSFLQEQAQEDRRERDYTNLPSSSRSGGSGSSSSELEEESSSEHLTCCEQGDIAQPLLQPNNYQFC

Compound	IC50 [1] [nM]	IC50 [2] [nM]	IC50 [3] [nM]
CCC(C)c1cccc(Cn2nc(C)c3c(NC(=O)c4cnc5cc(OCCN6CCN(C)[C@@H](C)C6)ccn45)cccc32)n1 (stereo partly drawn) [Example 37, N-(1-((6-sec-butylpyridin-2-yl)methyl)-3-methyl-1H-indazol-4-yl)-7-(2-((S)-3,4-dimethylpiperazin-1-yl)ethoxy)imidazo[1,2-a]pyridine-3-carboxamide]	102	52.4	62
Cc1cccc(Cn2nc(C)c3c(NC(=O)c4cnc5cc(C6=CCNCC6)ccn45)cccc32)n1 [Example 51, N-(3-methyl-1-((6-methylpyridin-2-yl)methyl)-1H-indazol-4-yl)-7-(1,2,3,6-tetrahydropyridin-4-yl)imidazo[1,2-a]pyridine-3-carboxamide hydrochloride]	394	9.9	687
Cc1cccc(Cn2nc(C)c3c(NC(=O)c4cnc5cc(O)ccn45)cccc32)n1 [Example 63, 7-hydroxy-N-(3-methyl-1-((6-methylpyridin-2-yl)methyl)-1H-indazol-4-yl)imidazo[1,2-a]pyridine-3-carboxamide]	≥ 1000	47	5000
CC(=O)c1ccn2c(C(=O)Nc3cccc4c3c(C)nn4Cc3cccc(C)n3)cnc2c1 [Example 79, 7-acetyl-N-(3-methyl-1-((6-methylpyridin-2-yl)methyl)-1H-indazol-4-yl)imidazo[1,2-a]pyridine-3-carboxamide]	≥ 1000	56.9	4320
C[C@H]1CN(CCOc2ccn3c(C(=O)Nc4cccc5c4c(Cl)nn5Cc4cccc(C5CC5)n4)cnc3c2)CCN1C [Example 23, (S)—N-(3-chloro-1-((6-cyclopropylpyridin-2-yl)methyl)-1H-indazol-4-yl)-7-(2-(3,4-dimethylpiperazin-1-yl)ethoxy)imidazo[1,2-a]pyridine-3-carboxamide]	239	21.1	65.7
COCCOc1ccn2c(C(=O)Nc3cccc4c3cnn4C[C@@H]3CCCN(C(=O)OC(C)(C)C)C3)cnc2c1 [Example 117, (R)-tert-butyl 3-((4-(7-(2-methoxyethoxy)imidazo[1,2-a]pyridine-3-carboxamido)-1H-indazol-1-yl)methyl)piperidine-1-carboxylate]	54.8	168	125
Cc1cccc(Cn2nc(C)c3c(NC(=O)c4cnc5cc(OCCN6CCN(C)[C@@H](C)C6)ccn45)cccc32)n1 [Example 35, (S)-7-(2-(3,4-dimethylpiperazin-1-yl)ethoxy)-N-(3-methyl-1-((6-methylpyridin-2-yl)methyl)-1H-indazol-4-yl)imidazo[1,2-a]pyridine-3-carboxamide]	431	19.4	924
COCCOc1ccn2c(C(=O)Nc3cccc4c3c(C)nn4CC3CC3)cnc2c1 [Example 84, N-(1-(cyclopropylmethyl)-3-methyl-1H-indazol-4-yl)-7-(2-methoxyethoxy)imidazo[1,2-a]pyridine-3-carboxamide]	≥ 1000	734	5000
COCCOc1ccn2c(C(=O)Nc3cccc4c3c(C)nn4CC3CCOCC3)cnc2c1 [Example 83, 7-(2-methoxyethoxy)-N-(3-methyl-1-((tetrahydro-2H-pyran-4-yl)methyl)-1H-indazol-4-yl)imidazo[1,2-a]pyridine-3-carboxamide]	≥ 1000	538	5000
Cc1cccc(Cn2nc(C)c3c(NC(=O)c4cnc5cc(C6CCNCC6)ccn45)cccc32)n1 [Example 52, N-(3-methyl-1-((6-methylpyridin-2-yl)methyl)-1H-indazol-4-yl)-7-(piperidin-4-yl)imidazo[1,2-a]pyridine-3-carboxamide tri-hydrochloride]	≥ 1000	108	5000
Cc1nn(Cc2cccc(C3CC3)n2)c2ccc(F)c(NC(=O)c3cnc4cc(OCCN5CCN(C)[C@@H](C)C5)ccn34)c12 [Example 43, (S)—N-(1-((6-cyclopropylpyridin-2-yl)methyl)-5-fluoro-3-methyl-1H-indazol-4-yl)-7-(2-(3,4-dimethylpiperazin-1-yl)ethoxy)imidazo[1,2-a]pyridine-3-carboxamide]	84.5	23.4	58.9
O=C(Nc1cccc2c1cnn2Cc1ccccc1)c1cnc2cc(Br)ccn12 [Example 161, N-(1-benzyl-1H-indazol-4-yl)-7-bromoimidazo[1,2-a]pyridine-3-carboxamide]	236	58.9	43.1
Cc1nn(Cc2ccc(C(C)C)cn2)c2cccc(NC(=O)c3cnc4cc(OCCN5CCN(C)[C@@H](C)C5)ccn34)c12 [Example 39, (S)-7-(2-(3,4-dimethylpiperazin-1-yl)ethoxy)-N-(1-((5-isopropylpyridin-2-yl)methyl)-3-methyl-1H-indazol-4-yl)imidazo[1,2-a]pyridine-3-carboxamide]	68	35.7	188
C[C@H]1CN(CCOc2ccn3c(C(=O)Nc4cccc5c4c(F)nn5Cc4cccc(C5CC5)n4)cnc3c2)CCN1C [Example 24, (S)—N-(1-((6-cyclopropylpyridin-2-yl)methyl)-3-fluoro-1H-indazol-4-yl)-7-(2-(3,4-dimethylpiperazin-1-yl)ethoxy)imidazo[1,2-a]pyridine-3-carboxamide]	14.1	6.8	6.4
Cc1nn(Cc2cccc(C(C)C)n2)c2cccc(NC(=O)c3cnc4cc(OCCN5CCN[C@@H](C)C5)ccn34)c12 [Example 46, (S)—N-(1-((6-isopropylpyridin-2-yl)methyl)-3-methyl-1H-indazol-4-yl)-7-(2-(3-methylpiperazin-1-yl)ethoxy)imidazo[1,2-a]pyridine-3-carboxamide]	21.4	22.4	42.5
CCc1cccc(Cn2nc(C)c3c(NC(=O)c4cnc5cc(OCCN6CCN(C)[C@@H](C)C6)ccn45)cccc32)n1 [Example 36, (S)-7-(2-(3,4-dimethylpiperazin-1-yl)ethoxy)-N-(1-((6-ethylpyridin-2-yl)methyl)-3-methyl-1H-indazol-4-yl)imidazo[1,2-a]pyridine-3-carboxamide]	65.6	12	119
Cc1cccc(Cn2nc(C)c3c(NC(=O)c4cnc5cc(OCCO)ccn45)cccc32)n1 [Example 57, 7-(2-hydroxyethoxy)-N-(3-methyl-1-((6-methylpyridin-2-yl)methyl)-1H-indazol-4-yl)imidazo[1,2-a]pyridine-3-carboxamide di-hydrochloride salt]	658	40.2	1270
COCCN1CCN(CCOc2ccn3c(C(=O)Nc4cccc5c4c(C)nn5Cc4cccc(C5CC5)n4)cnc3c2)CC1 [Example 20, N-(1-((6-cyclopropylpyridin-2-yl)methyl)-3-methyl-1H-indazol-4-yl)-7-(2-(4-(2-methoxyethyl)piperazin-1-yl)ethoxy)imidazo[1,2-a]pyridine-3-carboxamide]	55.9	10.8	76.1
O=C(Nc1cccc2c1cnn2Cc1ccccc1)c1cnc2cc(C(O)CO)ccn12 (stereo not drawn) [Example 157, N-(1-benzyl-1H-indazol-4-yl)-7-(1,2-dihydroxyethyl)imidazo[1,2-a]pyridine-3-carboxamide]	275	105	232
Cc1nn(Cc2cccc(C3CCC3)n2)c2cccc(NC(=O)c3cnc4cc(OCCN5CCN(C)[C@@H](C)C5)ccn34)c12 [Example 32, (S)—N-(1-((6-cyclobutylpyridin-2-yl)methyl)-3-methyl-1H-indazol-4-yl)-7-(2-(3,4-dimethylpiperazin-1-yl)ethoxy)imidazo[1,2-a]pyridine-3-carboxamide]	66.5	24.2	42.4
Cc1nn(Cc2cccc(C(C)(C)C)n2)c2cccc(NC(=O)c3cnc4cc(OCCN5CCN(C)[C@@H](C)C5)ccn34)c12 [Example 31, (S)—N-(1-((6-tert-butylpyridin-2-yl)methyl)-3-methyl-1H-indazol-4-yl)-7-(2-(3,4-dimethylpiperazin-1-yl)ethoxy)imidazo[1,2-a]pyridine-3-carboxamide]	335	102	67.1
Cc1cccc(Cn2nc(C)c3c(NC(=O)c4cnc5cc(CCO)ccn45)cccc32)n1 [Example 73, 7-(2-hydroxyethyl)-N-(3-methyl-1-((6-methylpyridin-2-yl)methyl)-1H-indazol-4-yl)imidazo[1,2-a]pyridine-3-carboxamide]	≥ 1000	63.6	5000
